Reference: PubChem BioAssay (NCI)
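Dose response: 5 concentrations. Exposure: 48 h. Format: 96-well plates. Endpoint: linear interpolation; highest concentration if not reached. At the GI50, growth is halved. TGI is the concentration that stops growth completely.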

Columns and labels:
Assay in all cases: NCI-60 cell line screen, 48 h
786-0 renal = tested on: 786-0 renal
A498 renal = tested on: A498 renal
A549 NSCLC = tested on: A549 NSCLC
ACHN renal = tested on: ACHN renal
BT-549 breast = tested on: BT-549 breast
CAKI-1 renal = tested on: CAKI-1 renal
CCRF-CEM leukemia = tested on: CCRF-CEM leukemia
COLO 205 colon = tested on: COLO 205 colon
DU-145 prostate = tested on: DU-145 prostate
EKVX NSCLC = tested on: EKVX NSCLC
HCC-2998 colon = tested on: HCC-2998 colon
HCT-116 colon = tested on: HCT-116 colon
HCT-15 colon = tested on: HCT-15 colon
HL-60(TB) leukemia = tested on: HL-60(TB) leukemia
HOP-62 NSCLC = tested on: HOP-62 NSCLC
HOP-92 NSCLC = tested on: HOP-92 NSCLC
HS 578T breast = tested on: HS 578T breast
HT29 colon = tested on: HT29 colon
IGROV1 ovarian = tested on: IGROV1 ovarian
K-562 leukemia = tested on: K-562 leukemia
KM12 colon = tested on: KM12 colon
LOX IMVI melanoma = tested on: LOX IMVI melanoma
M14 melanoma = tested on: M14 melanoma
MALME-3M melanoma = tested on: MALME-3M melanoma
MCF7 breast = tested on: MCF7 breast
MDA-MB-231 breast = tested on: MDA-MB-231 breast
MDA-MB-435 = tested on: MDA-MB-435
MDA-MB-468 breast = tested on: MDA-MB-468 breast
MOLT-4 leukemia = tested on: MOLT-4 leukemia
NCI-H226 lung = tested on: NCI-H226 lung
NCI-H23 lung = tested on: NCI-H23 lung
NCI-H460 lung = tested on: NCI-H460 lung
NCI-H522 lung = tested on: NCI-H522 lung
NCI/ADR-RES ovarian = tested on: NCI/ADR-RES ovarian
OVCAR-3 ovarian = tested on: OVCAR-3 ovarian
OVCAR-4 ovarian = tested on: OVCAR-4 ovarian
OVCAR-5 ovarian = tested on: OVCAR-5 ovarian
OVCAR-8 ovarian = tested on: OVCAR-8 ovarian
PC-3 prostate = tested on: PC-3 prostate
RPMI-8226 leukemia = tested on: RPMI-8226 leukemia
RXF 393 renal = tested on: RXF 393 renal
SF-268 CNS = tested on: SF-268 CNS
SF-295 CNS = tested on: SF-295 CNS
SF-539 CNS = tested on: SF-539 CNS
SK-MEL-2 melanoma = tested on: SK-MEL-2 melanoma
SK-MEL-28 melanoma = tested on: SK-MEL-28 melanoma
SK-MEL-5 melanoma = tested on: SK-MEL-5 melanoma
SK-OV-3 ovarian = tested on: SK-OV-3 ovarian
SN12C renal = tested on: SN12C renal
SNB-19 CNS = tested on: SNB-19 CNS
SNB-75 CNS = tested on: SNB-75 CNS
SR leukemia = tested on: SR leukemia
SW-620 colon = tested on: SW-620 colon
T-47D breast = tested on: T-47D breast
TK-10 renal = tested on: TK-10 renal
U251 CNS = tested on: U251 CNS
UACC-257 melanoma = tested on: UACC-257 melanoma
UACC-62 melanoma = tested on: UACC-62 melanoma
UO-31 renal = tested on: UO-31 renal

## CC[C@@]12CC(C(=O)OC)=C3Nc4cc5c(cc4[C@@]34CCN(C[C@H]3O[C@H]31)[C@@H]24)[C@@H]1[C@H](O5)[C@@H](O)[C@@]2(CC)CC(C(=O)OC)=C3Nc4cc(OC)ccc4[C@@]34CCN1[C@@H]24
786-0 renal
  GI50: 0.267 µM
  TGI: > 54 µM
A498 renal
  GI50: 0.698 µM
  TGI: 24.7 µM
A549 NSCLC
  GI50: 0.706 µM
  TGI: > 54 µM
ACHN renal
  GI50: 0.727 µM
  TGI: 15.2 µM
BT-549 breast
  GI50: 0.307 µM
  TGI: > 13.1 µM
CAKI-1 renal
  GI50: 0.142 µM
  TGI: > 54 µM
CCRF-CEM leukemia
  GI50: 0.376 µM
  TGI: > 54 µM
COLO 205 colon
  GI50: 0.356 µM
  TGI: 2.77 µM
DU-145 prostate
  GI50: 5.67 µM
  TGI: > 54 µM
EKVX NSCLC
  GI50: 0.928 µM
  TGI: > 54 µM
HCC-2998 colon
  GI50: 0.423 µM
  TGI: 1.95 µM
HCT-116 colon
  GI50: 0.253 µM
  TGI: 2.93 µM
HCT-15 colon
  GI50: 0.293 µM
  TGI: 4.03 µM
HL-60(TB) leukemia
  GI50: 0.0748 µM
  TGI: 1.27 µM
HOP-62 NSCLC
  GI50: 0.313 µM
  TGI: > 54 µM
HOP-92 NSCLC
  GI50: 0.248 µM
  TGI: > 43.7 µM
HS 578T breast
  GI50: 0.128 µM
  TGI: > 54 µM
HT29 colon
  GI50: 0.228 µM
  TGI: > 54 µM
IGROV1 ovarian
  GI50: 0.548 µM
  TGI: > 22.8 µM
K-562 leukemia
  GI50: 0.218 µM
  TGI: > 54 µM
KM12 colon
  GI50: 0.939 µM
  TGI: > 54 µM
LOX IMVI melanoma
  GI50: 0.273 µM
  TGI: 1.25 µM
M14 melanoma
  GI50: 0.416 µM
  TGI: > 54 µM
MALME-3M melanoma
  GI50: 0.605 µM
  TGI: > 43.1 µM
MCF7 breast
  GI50: 0.174 µM
  TGI: > 54 µM
MDA-MB-231 breast
  GI50: 0.33 µM
  TGI: > 40.3 µM
MDA-MB-435
  GI50: 0.32 µM
  TGI: > 54 µM
MDA-MB-468 breast
  GI50: 0.181 µM
  TGI: 1.2 µM
MOLT-4 leukemia
  GI50: 1.22 µM
  TGI: 23.2 µM
NCI-H226 lung
  GI50: 0.485 µM
  TGI: > 54 µM
NCI-H23 lung
  GI50: 0.89 µM
  TGI: 20.2 µM
NCI-H460 lung
  GI50: 1.37 µM
  TGI: > 54 µM
NCI-H522 lung
  GI50: 0.182 µM
  TGI: 2.84 µM
NCI/ADR-RES ovarian
  GI50: 0.731 µM
  TGI: 20.7 µM
OVCAR-3 ovarian
  GI50: 0.453 µM
  TGI: 13.4 µM
OVCAR-4 ovarian
  GI50: 0.656 µM
  TGI: > 54 µM
OVCAR-5 ovarian
  GI50: 1.52 µM
  TGI: > 54 µM
OVCAR-8 ovarian
  GI50: 0.736 µM
  TGI: > 54 µM
PC-3 prostate
  GI50: 0.657 µM
  TGI: > 54 µM
RPMI-8226 leukemia
  GI50: 0.136 µM
  TGI: 2.21 µM
RXF 393 renal
  GI50: 1.15 µM
  TGI: 6.01 µM
SF-268 CNS
  GI50: 2.99 µM
  TGI: > 54 µM
SF-295 CNS
  GI50: 0.891 µM
  TGI: > 44.7 µM
SF-539 CNS
  GI50: 0.416 µM
  TGI: > 54 µM
SK-MEL-2 melanoma
  GI50: 1.61 µM
  TGI: > 39 µM
SK-MEL-28 melanoma
  GI50: 1.38 µM
  TGI: > 54 µM
SK-MEL-5 melanoma
  GI50: 0.37 µM
  TGI: 2.29 µM
SK-OV-3 ovarian
  GI50: 0.336 µM
  TGI: 5.48 µM
SN12C renal
  GI50: 1.56 µM
  TGI: > 54 µM
SNB-19 CNS
  GI50: 0.66 µM
  TGI: > 40.4 µM
SNB-75 CNS
  GI50: 0.0631 µM
  TGI: > 54 µM
SR leukemia
  GI50: 0.254 µM
  TGI: > 46.5 µM
SW-620 colon
  GI50: 1.81 µM
  TGI: > 54 µM
T-47D breast
  GI50: 0.466 µM
  TGI: > 54 µM
TK-10 renal
  GI50: 0.219 µM
  TGI: 52.3 µM
U251 CNS
  GI50: 0.911 µM
  TGI: > 54 µM
UACC-257 melanoma
  GI50: 0.436 µM
  TGI: > 54 µM
UACC-62 melanoma
  GI50: 0.168 µM
  TGI: 3.83 µM
UO-31 renal
  GI50: 0.167 µM
  TGI: > 26 µM

## COc1ccccc1[C@H]1C(C(=O)c2ccc(Cl)cc2)C2(N[C@@H]1c1ccccc1)C(=O)Nc1ccc(Cl)cc12 (stereo partly drawn)
786-0 renal
  GI50: 8.96 µM
  TGI: 35.5 µM
A498 renal
  GI50: 15.3 µM
  TGI: 52.1 µM
A549 NSCLC
  GI50: 2.76 µM
  TGI: > 57.5 µM
ACHN renal
  GI50: 6.62 µM
  TGI: 53.7 µM
BT-549 breast
  GI50: 1.35 µM
  TGI: 18.6 µM
CAKI-1 renal
  GI50: 1.68 µM
  TGI: > 57.5 µM
CCRF-CEM leukemia
  GI50: 2.14 µM
  TGI: > 57.5 µM
COLO 205 colon
  GI50: 9.92 µM
  TGI: 21.1 µM
DU-145 prostate
  GI50: 2.56 µM
  TGI: > 57.5 µM
EKVX NSCLC
  GI50: 8.12 µM
  TGI: > 57.5 µM
HCC-2998 colon
  GI50: 9.77 µM
  TGI: 43.8 µM
HCT-116 colon
  GI50: 2.13 µM
  TGI: > 57.5 µM
HCT-15 colon
  GI50: 6.98 µM
  TGI: > 57.5 µM
HL-60(TB) leukemia
  GI50: 1.77 µM
  TGI: 25.2 µM
HOP-62 NSCLC
  GI50: 9.31 µM
  TGI: > 57.5 µM
HOP-92 NSCLC
  GI50: 4.52 µM
  TGI: 37.1 µM
HS 578T breast
  GI50: 2.56 µM
  TGI: 34.2 µM
HT29 colon
  GI50: 1.73 µM
  TGI: 7.91 µM
IGROV1 ovarian
  GI50: 9.15 µM
  TGI: > 57.5 µM
K-562 leukemia
  GI50: 1.78 µM
  TGI: > 57.5 µM
KM12 colon
  GI50: 8.36 µM
  TGI: > 57.5 µM
LOX IMVI melanoma
  GI50: 1.72 µM
  TGI: 21.2 µM
M14 melanoma
  GI50: 3.55 µM
  TGI: > 57.5 µM
MALME-3M melanoma
  GI50: 7.44 µM
  TGI: 21.1 µM
MCF7 breast
  GI50: 2 µM
  TGI: > 57.5 µM
MDA-MB-231 breast
  GI50: 1.36 µM
  TGI: 12.5 µM
MDA-MB-435
  GI50: 1.82 µM
  TGI: 8.94 µM
MDA-MB-468 breast
  GI50: 1.38 µM
  TGI: 16.2 µM
MOLT-4 leukemia
  GI50: 1.92 µM
  TGI: > 57.5 µM
NCI-H226 lung
  GI50: 8.32 µM
  TGI: > 57.5 µM
NCI-H23 lung
  GI50: 8.68 µM
  TGI: > 57.5 µM
NCI-H460 lung
  GI50: 2.32 µM
NCI-H522 lung
  GI50: 1.3 µM
  TGI: 5.51 µM
OVCAR-3 ovarian
  GI50: 2.76 µM
  TGI: > 57.5 µM
OVCAR-4 ovarian
  GI50: 10.4 µM
  TGI: > 57.5 µM
OVCAR-5 ovarian
  GI50: 8.44 µM
  TGI: > 57.5 µM
OVCAR-8 ovarian
  GI50: 7.52 µM
  TGI: > 57.5 µM
PC-3 prostate
  GI50: 1.46 µM
  TGI: > 57.5 µM
RPMI-8226 leukemia
  GI50: 5.91 µM
  TGI: 50.7 µM
RXF 393 renal
  GI50: 1.66 µM
  TGI: 13.8 µM
SF-268 CNS
  GI50: 9.79 µM
  TGI: > 57.5 µM
SF-295 CNS
  GI50: 3.43 µM
  TGI: > 57.5 µM
SF-539 CNS
  GI50: 8.51 µM
  TGI: 30.3 µM
SK-MEL-2 melanoma
  GI50: 4.08 µM
  TGI: 13.6 µM
SK-MEL-28 melanoma
  GI50: 16.7 µM
  TGI: > 57.5 µM
SK-MEL-5 melanoma
  GI50: 2.69 µM
  TGI: 10.6 µM
SK-OV-3 ovarian
  GI50: 5.17 µM
  TGI: > 57.5 µM
SN12C renal
  GI50: 2.83 µM
  TGI: 13.5 µM
SNB-19 CNS
  GI50: 14 µM
  TGI: > 57.5 µM
SNB-75 CNS
  GI50: 2.27 µM
  TGI: > 57.5 µM
SR leukemia
  GI50: 1.86 µM
  TGI: 26.6 µM
SW-620 colon
  GI50: 4.28 µM
  TGI: > 57.5 µM
T-47D breast
  GI50: 4.61 µM
  TGI: > 57.5 µM
TK-10 renal
  GI50: 15.8 µM
  TGI: > 57.5 µM
U251 CNS
  GI50: 2.86 µM
  TGI: > 57.5 µM
UACC-257 melanoma
  GI50: 4.86 µM
  TGI: > 57.5 µM
UACC-62 melanoma
  GI50: 1.72 µM
  TGI: 8.69 µM
UO-31 renal
  GI50: 2.26 µM
  TGI: > 57.5 µM
